Measurements: patent US20260285850A1, “SUBSTITUTED OXAZOLIDINONES AND IMIDAZOLINONES AS HERBICIDES” (FMC CORPORATION, priority 2023, published 2026)

Experiments:
Type in all cases: in vivo
[1] = system: ryegrass, Italian (italian ryegrass, Lolium multiflorum); test: Test A preemergence soil spray, visual injury rating 0-100; conditions: 10 days
Summary of the method: (§1)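 Visual injury ratings (0, no effect; 100, complete control) were assigned relative to untreated plants 10 days after treatment. Test chemicals, formulated with a surfactant-containing non-phytotoxic solvent, were applied in loam-sand soil either as a directed soil spray before emergence or to emerged plants, and plants were kept in a greenhouse.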

[2] = system: green foxtail (Setaria viridis); test: as above; conditions: 10 days
Summary of the method: as §1

[3] = system: blackgrass (Alopecurus myosuroides); test: as above; conditions: 10 days
Summary of the method: as §1

[4] = system: soybean (Glycine max); test: as above; conditions: 62 g ai/ha, 10 days, 0 = no effect, 100 = complete control
Summary of the method: as §1

[5] = system: barnyardgrass (Echinochloa crus-galli); test: as above; conditions: 10 days
Summary of the method: as §1

[6] = system: corn (Zea mays); test: as above; conditions: 10 days
Summary of the method: as §1

[7] = system: kochia (Bassia scoparia); test: as above; conditions: 10 days
Summary of the method: as §1

[8] = system: wheat (Triticum aestivum); test: as above; conditions: 10 days
Summary of the method: as §1

[9] = system: ragweed (common ragweed, Ambrosia artemisiifolia); test: as above; conditions: 10 days
Summary of the method: as §1

[10] = system: oat, wild (wild oat, Avena fatua); test: as above; conditions: 10 days
Summary of the method: as §1

[11] = system: ryegrass, Italian (italian ryegrass, Lolium multiflorum); test: Test A postemergence application, visual injury rating 0-100
Summary of the method: as §1

[12] = system: horseweed (Erigeron canadensis); test: as above
Summary of the method: as §1

[13] = system: palmer (palmer amaranth, palmer pigweed, Amaranthus palmeri); test: as above
Summary of the method: as §1

[14] = system: green foxtail (Setaria viridis); test: as above
Summary of the method: as §1

[15] = system: blackgrass (Alopecurus myosuroides); test: as above
Summary of the method: as §1

[16] = system: soybean (Glycine max); test: as above
Summary of the method: as §1

[17] = system: barnyardgrass (Echinochloa crus-galli); test: as above
Summary of the method: as §1

[18] = system: corn (Zea mays); test: as above
Summary of the method: as §1

[19] = system: kochia (Bassia scoparia); test: as above
Summary of the method: as §1

[20] = system: wheat (Triticum aestivum); test: as above
Summary of the method: as §1

[21] = system: galium (catchweed bedstraw, Galium aparine); test: as above
Summary of the method: as §1

[22] = system: ragweed (common ragweed, Ambrosia artemisiifolia); test: as above
Summary of the method: as §1

[23] = system: oat, wild (wild oat, Avena fatua); test: as above
Summary of the method: as §1

[24] = system: barnyardgrass (Echinochloa crusgalli); test: Test B flooded paddy test, visual plant response rating 0-100; conditions: 250 g ai/ha, Flood, applied to paddy water, evaluated after 13 days
Summary of the method: (§2)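 Plants were grown to the 2-leaf stage, then pots were flooded to 3 cm above the soil and test compounds were applied directly into the paddy water. Water depth was held there throughout; after 13 days in a greenhouse, injury was scored visually against untreated controls.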

[25] = system: rice (Oryza sativa); test: as above; conditions: 250 g ai/ha, Flood, applied to paddy water, evaluated after 13 days
Summary of the method: as §2

[26] = system: ducksalad (Heteranthera limosa); test: as above; conditions: 250 g ai/ha, Flood, applied to paddy water, evaluated after 13 days
Summary of the method: as §2

[27] = system: sedge, umbrella (small-flower umbrella sedge, Cyperus difformis); test: as above; conditions: 250 g ai/ha, Flood, applied to paddy water, evaluated after 13 days
Summary of the method: as §2

[28] = 62 g ai/ha, 0 = no effect, 100 = complete control
[29] = 62 g ai/ha, postemergence, 10 days, 0 = no effect, 100 = complete control
[30] = Postemergence, 16 g ai/ha, greenhouse 10 days, 0 no effect, 100 complete control

CC1(C(=O)NC2CC=C(C(=O)OCC(F)(F)F)C2)CN(c2cc(F)cc(Cl)c2)C(=O)O1 (stereo not shown) [Compound 142]
0: Ryegrass, Italian plant response rating ([1]; 16 g ai/ha, 0 to 100 scale) | Ryegrass, Italian plant response rating (0-100) [1, 28] | Foxtail, Green plant response rating ([2]; 16 g ai/ha, 0 to 100 scale) | Foxtail, Green plant response rating (0-100) [2, 28] | Blackgrass plant response rating ([3]; 16 g ai/ha, 0 to 100 scale) | Blackgrass plant response rating (0-100) [3, 28] | Soybean plant response rating (0-100) [4] | Barnyardgrass plant response rating ([5]; 16 g ai/ha, 0 to 100 scale) | Barnyardgrass plant response rating (0-100) [5, 28] | Corn plant response rating ([6]; 16 g ai/ha, 0 to 100 scale) | Corn plant response rating (0-100) [6, 28] | Kochia plant response rating ([7]; 16 g ai/ha, 0 to 100 scale) | Kochia plant response rating (0-100) [7, 28] | Wheat plant response rating ([8]; 16 g ai/ha, 0 to 100 scale) | Wheat plant response rating (0-100) [8, 28] | Ragweed plant response rating ([9]; 16 g ai/ha, 0 to 100 scale) | Ragweed plant response rating (0-100) [9, 28] | Oat, Wild plant response rating ([10]; 16 g ai/ha, 0 to 100 scale) | Oat, Wild plant response rating (0-100) [10, 28] | Ryegrass, Italian plant response rating (0-100) [11, 29] | Ryegrass, Italian plant response rating (0 to 100 scale) [11, 30] | Horseweed plant response rating (0-100) [12, 29] | Horseweed plant response rating (0 to 100 scale) [12, 30] | Pigweed, Palmer plant response rating (0-100) [13, 29] | Pigweed, Palmer plant response rating (0 to 100 scale) [13, 30] | Foxtail, Green plant response rating (0-100) [14, 29] | Foxtail, Green plant response rating (0 to 100 scale) [14, 30] | Blackgrass plant response rating (0-100) [15, 29] | Blackgrass plant response rating (0 to 100 scale) [15, 30] | Soybean plant response rating (0-100) [16, 29] | Soybean plant response rating (0 to 100 scale) [16, 30] | Barnyardgrass plant response rating (0-100) [17, 29] | Barnyardgrass plant response rating (0 to 100 scale) [17, 30] | Corn plant response rating (0-100) [18, 29] | Corn plant response rating (0 to 100 scale) [18, 30] | Kochia plant response rating (0-100) [19, 29] | Kochia plant response rating (0 to 100 scale) [19, 30] | Wheat plant response rating (0-100) [20, 29] | Wheat plant response rating (0 to 100 scale) [20, 30] | Galium plant response rating (0-100) [21, 29] | Galium plant response rating (0 to 100 scale) [21, 30] | Ragweed plant response rating (0-100) [22, 29] | Ragweed plant response rating (0 to 100 scale) [22, 30] | Oat, Wild plant response rating (0-100) [23, 29] | Oat, Wild plant response rating (0 to 100 scale) [23, 30] | Plant response rating, Barnyardgrass (0 to 100 scale, 0 is no effect and 100 is complete control) [24] | Plant response rating, Rice (0 to 100 scale, 0 is no effect and 100 is complete control) [25] | Plant response rating, Ducksalad (0 to 100 scale, 0 is no effect and 100 is complete control) [26] | Plant response rating, Sedge, Umbrella (0 to 100 scale, 0 is no effect and 100 is complete control) [27]
